Assay results reported in PMC3473359, “Formation of a heterooctameric complex between aspartate α-decarboxylase and its cognate activating factor, PanZ, is CoA-dependent” (Biochemical and Biophysical Research Communications, 2012).

Legend:
[1] = molecular target: T1, PanZ (Escherichia coli, UniProt P37613); assay: isothermal titration calorimetry; format: binding
T1 construct: His-tagged PanZ from pCA24N(-GFP)-his-panZ, expressed in E. coli delta-panD delta-panZ (DE3); Ni-NTA and Superdex 75; monomer; copurifies partly with CoA
T1 sequence (P37613 1-127): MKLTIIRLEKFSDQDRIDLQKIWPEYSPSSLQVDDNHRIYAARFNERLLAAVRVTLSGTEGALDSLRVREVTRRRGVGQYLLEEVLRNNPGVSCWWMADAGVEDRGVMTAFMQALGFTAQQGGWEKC
From the text: isothermal titration calorimetry on PanZ

[2] = molecular target: T1, PanZ; assay: isothermal titration calorimetry; format: binding; conditions: pH 7.4, 25 °C; sample contains copurified CoA

Structure (SMILES)	Kd [1] [nM]	isothermal titration calorimetry [2]
CC(C)(COP(=O)(O)OP(=O)(O)OC[C@H]1O[C@@H](n2cnc3c(N)ncnc32)[C@H](O)[C@@H]1OP(=O)(O)O)[C@@H](O)C(=O)NCCC(=O)NCCS [CoA]	1950 ± 160	–
CC(=O)SCCNC(=O)CCNC(=O)[C@H](O)C(C)(C)COP(=O)(O)OP(=O)(O)OC[C@H]1O[C@@H](n2cnc3c(N)ncnc32)[C@H](O)[C@@H]1OP(=O)(O)O [acetyl CoA]	–	titration of CoA and AcCoA into PanZ showed binding
